Source: ChEMBL document CHEMBL1201862, “PubChem BioAssay data set” (2004)
Calls of active or inactive are those of the source.

Key:
[1] = Trypanosoma cruzi growth suppression in host cells – NIH3T3 host cells, beta-gal luminescence, confirmation (AID 2044); type: functional, cell-based;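 further: intracellular parasites grown in NIH/3T3 mouse fibroblasts as host cells; luminescent beta-galactosidase reporter signal from transgenic T. cruzi replicating inside host cells; inhibitors lower the luminescence signal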
[2] = NIH3T3 cell viability loss – ATP luminescence, mouse fibroblasts, counter-screen, dose response (AID 2010); type: functional, cell-based;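 further: cells exposed to compound for about 90 hours before reading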
[3] = THP-1 cell cytotoxicity, dose response, cytotoxicity control for non-replicating M. tuberculosis project (AID 489025); type: functional
cells [4] = type: functional
[5] = molecular target: Eukaryotic translation initiation factor 4E (Mus musculus, UniProt P63073); assay: blockers of eIF4G binding by eIF4E – biochemical, TR-FRET, dose response (AID 855); type: functional;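 further: potency for disrupting eIF4E binding to eIF4GI seen as loss of FRET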
Eukaryotic translation initiation factor 4E, sequence (P63073 whole entry): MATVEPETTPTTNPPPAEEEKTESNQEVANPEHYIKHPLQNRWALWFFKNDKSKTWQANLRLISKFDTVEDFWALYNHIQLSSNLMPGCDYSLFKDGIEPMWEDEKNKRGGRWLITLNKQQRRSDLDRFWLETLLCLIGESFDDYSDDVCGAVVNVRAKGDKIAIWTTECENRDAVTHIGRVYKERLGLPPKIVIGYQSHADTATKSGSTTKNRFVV

[6] = molecular target: Induced myeloid leukemia cell differentiation protein Mcl-1 (Homo sapiens, UniProt Q07820); type: functional
Induced myeloid leukemia cell differentiation protein Mcl-1, sequence (Q07820 whole entry): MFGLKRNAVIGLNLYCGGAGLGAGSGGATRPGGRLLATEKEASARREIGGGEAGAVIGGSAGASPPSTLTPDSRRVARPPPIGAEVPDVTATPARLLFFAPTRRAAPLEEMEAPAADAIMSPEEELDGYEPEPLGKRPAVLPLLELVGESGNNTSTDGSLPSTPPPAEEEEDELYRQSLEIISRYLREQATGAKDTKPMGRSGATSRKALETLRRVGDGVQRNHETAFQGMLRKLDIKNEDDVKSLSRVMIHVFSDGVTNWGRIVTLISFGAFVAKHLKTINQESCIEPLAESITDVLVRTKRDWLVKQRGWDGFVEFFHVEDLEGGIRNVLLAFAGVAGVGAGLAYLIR

Genome polyprotein = Genome polyprotein (dengue virus type 2, UniProt P29990); assay: flavivirus cap methylation enzyme inhibition – biochemical, confirmation dose response, primary screen (AID 588689); type: functional
Genome polyprotein, sequence (P29990 2492-3391 limits assumed): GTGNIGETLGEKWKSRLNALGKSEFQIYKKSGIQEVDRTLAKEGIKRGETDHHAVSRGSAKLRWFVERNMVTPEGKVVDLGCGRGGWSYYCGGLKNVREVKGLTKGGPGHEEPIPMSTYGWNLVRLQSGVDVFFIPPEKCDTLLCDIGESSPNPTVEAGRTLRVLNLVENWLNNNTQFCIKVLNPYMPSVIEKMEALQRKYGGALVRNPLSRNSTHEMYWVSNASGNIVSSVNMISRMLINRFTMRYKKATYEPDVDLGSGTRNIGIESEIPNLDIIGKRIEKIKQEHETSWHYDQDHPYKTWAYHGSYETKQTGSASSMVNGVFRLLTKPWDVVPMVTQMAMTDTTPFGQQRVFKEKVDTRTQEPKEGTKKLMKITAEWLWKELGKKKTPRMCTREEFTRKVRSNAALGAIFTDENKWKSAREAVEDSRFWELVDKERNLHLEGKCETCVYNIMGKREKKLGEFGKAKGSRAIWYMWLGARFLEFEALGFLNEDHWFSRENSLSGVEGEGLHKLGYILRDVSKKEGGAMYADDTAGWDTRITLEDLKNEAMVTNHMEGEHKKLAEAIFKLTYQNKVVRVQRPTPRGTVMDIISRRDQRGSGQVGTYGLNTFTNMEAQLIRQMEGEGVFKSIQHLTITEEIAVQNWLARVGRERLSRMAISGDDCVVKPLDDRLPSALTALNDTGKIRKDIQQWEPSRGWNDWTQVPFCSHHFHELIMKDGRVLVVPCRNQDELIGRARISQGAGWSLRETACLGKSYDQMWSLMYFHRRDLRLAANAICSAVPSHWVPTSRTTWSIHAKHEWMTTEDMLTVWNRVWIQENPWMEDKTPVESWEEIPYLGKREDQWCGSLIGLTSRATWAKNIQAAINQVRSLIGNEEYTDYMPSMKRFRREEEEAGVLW

H4 = assay: Luminescence Cell-Based Dose Response HTS to Identify Activators of 5'UTR Stem-Loop Driven Prion Protein mRNA Translation in H4 Neuroglioblastoma Cells. [Related pubchem assays: 1829 (Project Summary), 1814 (Primary HTS)]; type: functional; conditions: Homo sapiens
[7] = Luminescence Cell-Based Dose Confirmation HTS to Identify Activators of 5'UTR Stem-Loop Driven Alpha-Synuclein mRNA Translation in H4 Neuroglioblastoma Cells. [Related pubchem assays: 1829 (Project Summary), 1814 (Primary HTS)]; type: functional
[8] = Luminescence Cell-Based Dose Response HTS to Identify Activators of Luciferase Translation or Activity in H4 […] Cells. [Related pubchem assays: 1829 (Project Summary), 1814 (Primary HTS)]; type: functional
[9] = molecular target: Dual specificity tyrosine-phosphorylation-regulated kinase 1A (Rattus norvegicus, UniProt Q63470); type: biochemical, Homo sapiens
[10] = molecular target: DNA dC->dU-editing enzyme APOBEC-3A (Homo sapiens, UniProt P31941); assay: Dose Response confirmation of small molecule APOBEC3A DNA Deaminase Inhibitors via a fluorescence-based single-stranded DNA deaminase assay. [Related pubchem assays (depositor defined):AID493011, AID493024]; type: functional
DNA dC->dU-editing enzyme APOBEC-3A, sequence (P31941 whole entry): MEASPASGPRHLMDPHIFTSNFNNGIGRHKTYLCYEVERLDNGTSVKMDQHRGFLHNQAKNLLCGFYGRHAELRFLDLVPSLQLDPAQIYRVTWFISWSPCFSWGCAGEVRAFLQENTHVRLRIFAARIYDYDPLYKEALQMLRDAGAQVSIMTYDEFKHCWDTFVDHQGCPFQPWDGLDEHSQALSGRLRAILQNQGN

[11] = molecular target: DNA dC->dU-editing enzyme APOBEC-3G (Homo sapiens, UniProt Q9HC16); type: functional;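 further: Dose-response counterscreen measuring inhibition of APOBEC3G DNA deaminase activity, run while confirming APOBEC3A inhibitors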
DNA dC->dU-editing enzyme APOBEC-3G, sequence (Q9HC16 whole entry): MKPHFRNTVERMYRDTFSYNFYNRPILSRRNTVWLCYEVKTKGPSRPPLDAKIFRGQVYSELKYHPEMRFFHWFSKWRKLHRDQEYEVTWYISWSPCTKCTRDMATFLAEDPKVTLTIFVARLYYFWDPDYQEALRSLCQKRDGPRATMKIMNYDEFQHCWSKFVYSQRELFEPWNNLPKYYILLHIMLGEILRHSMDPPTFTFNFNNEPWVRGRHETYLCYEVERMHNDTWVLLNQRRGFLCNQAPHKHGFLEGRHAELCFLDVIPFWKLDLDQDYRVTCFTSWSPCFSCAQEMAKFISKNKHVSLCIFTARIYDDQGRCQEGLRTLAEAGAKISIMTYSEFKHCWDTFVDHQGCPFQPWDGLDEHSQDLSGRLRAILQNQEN

cells [12] = assay: cells
INS1 = assay: INS-1E survival protection against cytokine death – cell-based, luminescence, retest, dose response (AID 449756); type: functional; conditions: Rattus norvegicus;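 further: cell death triggered by IL-1 beta plus TNF-alpha plus IFN-gamma mixture; protective hits raise ATP signal compared with cytokine alone wells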
[13] = HEK-293T cell viability reduction – luminescence, B-cell screen hits, cytotoxicity control for BCR NF-kB inhibitor project, dose response (AID 489021); type: functional, cell-based;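 further: HEK-293T cells carrying an NF-kB luciferase reporter; cells exposed to compound for about 14 hours before viability readout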
[14] = fluconazole-exposed Candida albicans growth modulators – fluorescence, retest, confirmation (AID 2467); type: functional, cell-based
[15] = NIH-3T3 fibroblast cytotoxicity, dose response, cytotoxicity control, cell-based, fluorescence, Alamar Blue, secondary assay (AID 2327); type: functional;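 further: NIH-3T3 mouse fibroblasts cultured with fluconazole at 8 µg/mL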
HEK293 = assay: EBV LMP1 TES2 canonical NF-kB signalling blockers – cell-based, HEK293, luciferase, cherry-pick, dose response (AID 588343); type: functional; conditions: Homo sapiens
cells [16] = assay: cells; remark: listed apart in the source
[17] = molecular target: T1, Heat shock factor protein 1 (Mus musculus, UniProt P38532); assay: decrease of HSF1-responsive luciferase luminescence – cell-based, NIH3T3, dose retest, confirmation (AID 2382); type: functional;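 further: NIH3T3 fibroblasts with HSF1-driven luciferase reporter stressed by proteasome inhibitor MG132; luminescence from HSF1-driven luciferase expression after 8 hours of MG132 stress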
T1 sequence (P38532 whole entry): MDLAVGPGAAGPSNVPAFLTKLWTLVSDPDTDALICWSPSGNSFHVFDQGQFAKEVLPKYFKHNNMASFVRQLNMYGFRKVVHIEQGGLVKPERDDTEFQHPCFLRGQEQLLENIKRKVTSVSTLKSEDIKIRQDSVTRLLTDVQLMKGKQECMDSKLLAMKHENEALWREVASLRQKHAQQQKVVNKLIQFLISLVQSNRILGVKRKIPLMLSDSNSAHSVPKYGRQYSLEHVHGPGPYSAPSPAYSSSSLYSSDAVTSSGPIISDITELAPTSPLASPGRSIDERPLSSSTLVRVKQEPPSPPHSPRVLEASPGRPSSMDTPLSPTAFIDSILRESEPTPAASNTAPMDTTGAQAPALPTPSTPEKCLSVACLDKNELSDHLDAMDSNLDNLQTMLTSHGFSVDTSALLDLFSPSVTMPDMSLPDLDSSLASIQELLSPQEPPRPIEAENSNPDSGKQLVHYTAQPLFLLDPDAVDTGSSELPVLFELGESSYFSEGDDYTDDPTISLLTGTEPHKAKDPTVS

Large T antigen = Large T antigen (Simian virus 40, UniProt P03070); type: functional, Betapolyomavirus macacae;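 further: Confirmatory-stage PubChem screen for compounds that inhibit SV40 T antigen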
Large T antigen, sequence (P03070 whole entry): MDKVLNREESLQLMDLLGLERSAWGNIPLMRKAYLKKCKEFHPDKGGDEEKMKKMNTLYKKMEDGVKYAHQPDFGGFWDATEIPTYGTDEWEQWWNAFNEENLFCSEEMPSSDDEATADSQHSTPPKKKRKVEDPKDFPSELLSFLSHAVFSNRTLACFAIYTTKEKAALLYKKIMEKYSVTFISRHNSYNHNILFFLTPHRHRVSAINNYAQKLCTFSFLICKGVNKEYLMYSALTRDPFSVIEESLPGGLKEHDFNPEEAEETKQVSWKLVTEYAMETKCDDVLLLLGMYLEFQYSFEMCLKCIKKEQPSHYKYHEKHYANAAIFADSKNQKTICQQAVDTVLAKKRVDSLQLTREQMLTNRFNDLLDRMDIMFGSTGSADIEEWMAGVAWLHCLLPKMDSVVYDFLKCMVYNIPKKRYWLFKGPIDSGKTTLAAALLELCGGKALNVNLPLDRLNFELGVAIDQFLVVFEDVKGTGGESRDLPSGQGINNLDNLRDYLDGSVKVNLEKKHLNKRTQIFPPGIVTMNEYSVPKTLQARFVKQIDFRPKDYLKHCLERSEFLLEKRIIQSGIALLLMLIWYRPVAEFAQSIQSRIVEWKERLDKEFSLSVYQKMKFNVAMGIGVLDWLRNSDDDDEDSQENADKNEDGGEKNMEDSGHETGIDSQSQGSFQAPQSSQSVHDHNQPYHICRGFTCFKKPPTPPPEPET

Leucine aminopeptidase = molecular target: T2, Leucine aminopeptidase (Plasmodium falciparum 3D7, UniProt Q8IL11); assay: P. falciparum M17LAP inhibitors, primary screen, biochemical, fluorogenic H-Leu-NHMec substrate, 1536-well (AID 1619); type: functional
T2 sequence (Q8IL11 whole entry): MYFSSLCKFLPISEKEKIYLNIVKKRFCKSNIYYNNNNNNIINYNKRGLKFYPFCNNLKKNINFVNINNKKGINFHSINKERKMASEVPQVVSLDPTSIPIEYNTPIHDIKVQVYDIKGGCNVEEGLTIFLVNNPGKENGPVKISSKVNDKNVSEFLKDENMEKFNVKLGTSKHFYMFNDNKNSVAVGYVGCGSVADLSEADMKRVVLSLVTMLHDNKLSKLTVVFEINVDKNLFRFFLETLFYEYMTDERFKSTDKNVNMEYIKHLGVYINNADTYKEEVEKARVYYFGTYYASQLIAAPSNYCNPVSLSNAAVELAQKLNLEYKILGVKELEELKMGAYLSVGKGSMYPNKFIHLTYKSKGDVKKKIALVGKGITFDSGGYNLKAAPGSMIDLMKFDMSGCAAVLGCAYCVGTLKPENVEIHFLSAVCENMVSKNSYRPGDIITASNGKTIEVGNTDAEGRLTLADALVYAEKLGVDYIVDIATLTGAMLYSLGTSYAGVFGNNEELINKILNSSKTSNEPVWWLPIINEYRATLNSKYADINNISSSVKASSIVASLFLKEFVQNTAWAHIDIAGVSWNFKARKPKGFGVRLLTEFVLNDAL

Vero = assay: cells; type: functional, cell-based; conditions: Chlorocebus sabaeus
[18] = viability of uninfected HEp-2 cells – cell-based, HTS, cytotoxicity control for RSV inhibitor project, dose response (AID 2410); type: functional; conditions: human respiratory syncytial virus
[19] = molecular target: T3, DNA repair protein RAD52 homolog (Homo sapiens, UniProt P43351); type: functional, biochemical
T3 sequence (P43351 whole entry): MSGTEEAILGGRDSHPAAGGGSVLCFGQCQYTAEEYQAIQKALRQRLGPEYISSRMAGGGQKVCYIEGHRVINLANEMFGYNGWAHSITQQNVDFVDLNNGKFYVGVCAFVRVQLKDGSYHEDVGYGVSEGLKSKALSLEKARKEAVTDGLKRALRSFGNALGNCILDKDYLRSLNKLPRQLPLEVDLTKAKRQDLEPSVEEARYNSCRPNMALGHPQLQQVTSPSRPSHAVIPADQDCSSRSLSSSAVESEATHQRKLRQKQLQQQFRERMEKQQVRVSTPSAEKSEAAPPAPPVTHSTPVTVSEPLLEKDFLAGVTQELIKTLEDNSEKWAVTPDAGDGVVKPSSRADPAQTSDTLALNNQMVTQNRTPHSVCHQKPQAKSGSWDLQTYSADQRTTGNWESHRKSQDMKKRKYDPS

[20] = general cell-killing toxicity readout – plate reader, dry powder samples, cytotoxicity control for PAX8 inhibitor project, dose response (AID 743021); type: functional, cell-based

With `C=CCc1cc(Cl)ccc1OCCCn1ccnc1` the EC50 [1] was 2.12 µM (active), the EC50 [2] was > 60 µM (not active) and the CC50 [3] was > 40 µM (active). For the same compound, the IC50 (cells [4]) was 16.7 µM (active).
In the case of `CC(=O)Nc1ccc(C(=O)Nc2cccc(-c3cnc4ccccc4n3)c2)cc1`, the IC50 [5] is reported as 50 µM (inactive) and the IC50 [6] is reported as 25.5 µM (not active).
For `CC(NC(=O)CSc1nnc(CC(=O)Nc2ccc(Cl)c(Cl)c2)n1C)c1ccccc1` (stereo unspecified), the IC50 [5] was > 64 µM (inactive).
With `Cc1ccc(C)c(S(=O)(=O)Nc2ccccc2C(=O)Nc2ccc(S(=O)(=O)Nc3ncccn3)cc2)c1` the IC50 (Genome polyprotein) was > 100 µM (active).
For `Nc1nc(N)nc(-c2ccc(Cl)cc2)n1`, the EC50 (H4) was > 120 µM (not active), the EC50 [7] was 12.2 µM (active) and the EC50 [8] was > 120 µM (not active). For the same compound, the AC50 [9] was 10.6 µM (active).
With `COc1cccc(CNC(=O)c2cccc(S(=O)(=O)N3CCN(C)CC3)c2)c1` the IC50 [10] was 5.44 µM (active) and the IC50 [11] was 8.69 µM (active).
For `Cc1ncc(CN2CCCC(CCC(=O)NCc3ccc(F)c(F)c3)C2)s1` (stereo unspecified), the EC50 [1] was < 0.1 µM (active), the EC50 [2] was > 60 µM (inconclusive) and the EC50 (cells [12]) was 0.14 µM (active).
With `COc1cc(CN2CCCC(CCC(=O)NCc3ccc(C)o3)C2)cc2c1OCO2` (stereo unspecified) the EC50 [1] was < 0.1 µM (active), the EC50 [2] was > 60 µM (not active) and the EC50 (cells [12]) was 0.015 µM (active).
For `COc1ccc(-[n+]2c(-c3ccc(Br)cc3)cn3c2CCc2ccccc2-3)cc1`, the AC50 (INS1) was 2.15 µM (active), the EC50 [1] was 0.424 µM (active) and the EC50 (H4) was > 120 µM (not active). For the same compound, the IC50 [13] was > 80 µM (inactive), the EC50 [14] was 1.62 µM (active) and the EC50 [15] was > 160 µM (inactive). The EC50 [7] was > 120 µM (not active), the EC50 [2] was > 30 µM (not active) and the EC50 [8] was > 120 µM (not active).
With `Cc1nc(Nc2c(Cl)cccc2Cl)sc1C(=O)Nc1ccccc1` the IC50 [13] was > 80 µM (inactive).
With `Cc1ccc(SCCOCCN2CC(C)OC(C)C2)cc1` (stereo unspecified) the EC50 [1] was < 0.1 µM (active), the EC50 [2] was > 60 µM (not active) and the EC50 (cells [12]) was 0.007 µM (active).
With `COc1ccc(OCc2cccc(C(=O)NN)c2)cc1` the AC50 (HEK293) was 3.57 µM (active) and the IC50 [13] was > 80 µM (inactive).
For `COC(=O)CSc1nnc(-c2sc3ccccc3c2Cl)o1`, the IC50 [13] was > 80 µM (inactive).
For `COc1ccc(S(=O)(=O)N2CCN(CCO)CC2)cc1-c1nnc2c3ccccc3c(C)nn12`, the IC50 (cells [16]) was 4.08 µM (active) and the EC50 [17] was > 195 µM (not active).
In the case of `COc1ccc(C2(O)CCN(CC(=O)Nc3nc(-c4ccccc4)cs3)CC2)cc1`, the CC50 [3] is reported as > 40 µM (active) and the IC50 (cells [4]) is reported as 16.7 µM (active).
With `O=C(O)/C=C/C(=O)Nc1ccc(Oc2ccc(NC(=O)/C=C/C(=O)O)cc2)cc1` the IC50 (Large T antigen) was > 100 µM (active) and the IC50 (Leucine aminopeptidase) was 14.8 µM (active).
For `Cc1ccc(C)c(NC(=O)C2CC(Cl)=CCC2C(=O)O)c1` (stereo unspecified), the IC50 (Leucine aminopeptidase) was 18.6 µM (active).
In the case of `COc1ccc(NC(=O)c2cc(-c3ccco3)nc3ccccc23)cn1`, the IC50 [10] is reported as 16.9 µM (active) and the IC50 [11] is reported as 22.5 µM (active).
With `O=C(O)CSc1ccccn1` the IC50 [5] was > 64 µM (inactive).
In the case of `O=C(O)C1CC=CCC1C(=O)Nc1ccc(S(=O)(=O)N2CCCc3ccccc32)cc1` (stereo unspecified), the IC50 (cells [16]) is reported as 2.91 µM (active), the IC50 (Vero) is reported as 16.4 µM (active) and the CC50 [18] is reported as 15.7 µM (active).
In the case of `COc1ccc(CCOC(=O)c2ccc(NC(=O)CC#N)cc2)cc1`, the IC50 (cells [16]) is reported as 9.43 µM (active) and the CC50 [18] is reported as > 50 µM (active).
For `CN(Cc1ccc(Cl)c(Cl)c1)C(=O)C1=CC=CN2CCS(=O)(=O)N=C12`, the IC50 [10] was 8.45 µM (active) and the IC50 [11] was 12.2 µM (active).
For `C[C@]12CC[C@H](O)CC1=CCC1C2CC[C@@]2(C)C1CC[C@@H]2NC(=O)[C@@H](N)Cc1c[nH]cn1` (stereo partly specified), the AC50 [19] was 0.952 µM (active).
With `CC(=O)c1ccc(Nc2nc(C(N)Cc3ccc(N)cc3)cs2)cc1` (stereo unspecified) the AC50 [19] was 30.4 µM (active).
For `CCOc1ccc2ccccc2c1/C=N\NC(=O)OC`, the AC50 [20] was 48.5 µM (active).
